Earlier results, collected in patent publication US8143244B2, “Cyclopropyl fused indolobenzazepine HCV NS5B inhibitors” (Bristol-Myers Squibb Company, priority 2009, dated 2012).

Legend:
HCV = conditions: cited from earlier work
[1] = extended dosing of the combination regimens (interferon and ribavirin); cited from earlier work

| Molecule | HCV RNA levels in patients (HCV; single agent: transient decrease then rebound, more robust drop combined with interferon and ribavirin) | hepatic toxicity [1] | sustained efficacy in patients (HCV; HCV therapy) |
| --- | --- | --- | --- |
| CNC(=O)c1c(-c2ccc(F)cc2)oc2cc(N(CCO)S(C)(=O)=O)c(C3CC3)cc12 [HCV-796] | showed an ability to reduce HCV RNA levels in patients | hepatic toxicity observed |  |
| alpha-interferon and ribavirin |  |  | 40 % of patients |
